Columns and labels:
[1] = tested on: brain slices from lynx2 knockout (KO) mice; assay: long term depression (LTD) of evoked fEPSPs in brain slices after theta pulse stimulation; assay type: cell-based, mouse; settings: ACSF with 20 mM methyllycaconitine; lynx2KO slices; theta pulse stimulation (FIG. 4D)
Description: FIG. 4D is a graph of stimulating electrode traces from long term depression (LTD) experiments using extracellular recordings for evoked field excitatory post-synaptic potentials (fEPSPs) in […] (EC) brain slices in ACSF solution with […] methyllycaconitine (MLA) from lynx2 knockout (KO) mice before (left of zero minutes) and after (right of zero minutes) theta pulse stimulations (TSP), according to embodiments of the present invention.
Field excitatory postsynaptic potentials (fEPSPs) were evoked by 0.05 Hz test stimulus though a bipolar stimulating electrode placed on external Capsule (EC), and a glass pipette as recording electrode was filled with ACSF and placed in BLA. […] Access resistances were continuously monitored and neurons with more than 20% change of series resistance were excluded from data analysis.
The plasticity ratio was calculated from the average EPSP amplitude of the last 10 mins of baseline recording and the last 15 mins after high frequency or low stimulus, for LTP and LTD studies, respectively. […] For all experiments, treatment effects were analyzed with one-way ANOVA, followed by the appropriate post hoc tests. […]

lynx2KO mice [2] = assay: fear extinction experiment (noise previously paired with electric shock); assay type: in vivo, mouse; settings: lynx2KO mice with mec vs lynx2KO mice without mec (FIGS. 2B-2C)
Description: FIG. 2B is a graph of fear observed in wild type (black circles) and lynx2KO mice (white triangles) after fear training (an electric shock depicted in yellow) associated with a noise for 24 hours followed by the same noise without the shock to measure the mouse's capability to lose the fear, according to embodiments of the present invention.
FIG. 2C is a graph of fear observed in lynx2KO mice during the fear extinction experiment of FIG. 2B with a group of lynx2KO mice receiving mecamylamine (mec), according to embodiments of the present invention.

lynx2KO mice [3] = assay: light dark box experiment (latency to enter dark enclosed environment); assay type: in vivo, mouse; settings: lynx2KO mice under chronic stress with mec vs lynx2KO mice without mec (FIG. 2A)
Excerpt: FIG. 2A is a graph of the time in seconds (latency) for wild type (WT) (black bars) or lynx2 knock out (KO) (white bars) mice to enter a dark enclosed environment under conditions of saline, chronic stress, or chronic stress with administration of mecamylamine (mec) as indicated, according to embodiments of the present invention.

[4] = tested on: basolateral amygdalar neurons of lynx2KO mice; assay: spike timing dependent plasticity (post-pre stimulation), EPSC amplitude, perforated patch-clamp; assay type: cell-based, mouse; settings: 10 μM DHPG for 15 min; lynx2KO neurons (FIG. 8E)
Description: Spike timing (i.e., Δt in ms) was determined between the onset of the EPSP and the peak of the AP. […] Post-pre stimulation was given tp determine the level of LTD. x-axis is time in minutes, y axis is EPSC amplitude, normalized and presented as a percentage (baseline set to 100). Baseline is EPSC amplitude before post-pre stimulation.
For activation of mGluR receptor with DHPG (FIG. 8E) in a spike-timing dependent paradigm (post-pre stimulation) to elicit LTD. For exploration of the mechanism of anti-Hebbian LTP, mGluR5 agonist DHPG (10 μM, Tocris Bioscience, Bristol, UK) was administered for 15 min when the baseline recorded at least 10 min. […] Baseline is EPSC amplitude before post-pre stimulation.
Pairings were repeated 100 times. Pre-post (spike timings as positive) was set as a 1 EPSP/1 AP pairing (100 repeats at 1 Hz) or post-pre (spike timing as negative) with either 1 AP/1 EPSP pairing (100 repeats at 1 Hz). Spike timing (i.e., Δt in ms) was determined between the onset of the EPSP and the peak of the AP.

CCN1C[C@]2(COC(=O)c3ccccc3N3C(=O)C[C@H](C)C3=O)CC[C@H](OC)[C@@]34[C@@H]5C[C@H]6[C@H](OC)[C@@H]5[C@](O)(C[C@@H]6OC)[C@@](O)([C@@H](OC)[C@H]23)[C@@H]14 [methyllycaconitine]
induced long term depression (LTD) of fEPSPs [1]: able to rescue induced long term depression (LTD)

CNC1(C)C2CCC(C2)C1(C)C (stereo not shown) [mecamylamine]
ability to unlearn a fear associated with a noise (fear extinction) (lynx2KO mice [2]): increased ability to unlearn a fear associated with a noise
latency to dark (lynx2KO mice [3]): increased latency to dark

NC(C(=O)O)c1cc(O)cc(O)c1 (stereo not shown) [DHPG, 3,5-dihydroxyphenylglycine]
synaptic plasticity (EPSC amplitude after post-pre stimulation) [4]: restores the abnormal synaptic plasticity in the lynx2KO neurons to normal levels
